Where a name gives a salt, the structure may show the parent alone. Read-outs that look alike come from different tables or passages of the source.
How the values were obtained:
Vero E6 cells = conditions: read-out: SARS-CoV-2 CC50, uninfected, MTT
HIV-1 = conditions: cited from earlier work
293T-ACE2 cells = conditions: read-out: SARS-CoV-2 CC50, uninfected, MTT
[1] = test system: subdomain IIB of the rev recognition element (RRE) of the HIV-1 genomic RNA; conditions: cited from earlier work
SARS-CoV-2 USA-WA1/2020 [2] = assay: microbe, parasite or virus in culture; type: cell-based; conditions: 293T-ACE2 cells, MOI 0.25, two days, read-out: SARS-CoV-2 EC50
SCoV2 USA-WA1/2020 = type: cell-based; conditions: 293T-ACE2, MOI 2, 8-h single cycle; added at +2 h relative to infection
SCoV2 RNA elements = assay: ligand-based 1H NMR (1D, CPMG, wLOGSY), six RNA elements compared; type: binding, SARS-CoV-2; conditions: CSP, LB, CPMG and wLOGSY perturbations; 300 µM compound
Text: We first used ligand-based ^1H NMR experiments to analyze the interaction of the selected compounds with each of the six RNA elements specified above, including one-dimensional, Carr–Purcell–Meiboom–Gill (CPMG) and waterLOGSY (wLOGSY) experiments. These assays detect changes in the ^1H signals of the ligand upon RNA association (Figure 4A), and have been successfully used to evaluate small-molecule binding to RNA motifs, including elements of the SCoV2 genome.
Each ligand (at a concentration of 300 μM) was mixed with a smaller quantity of RNA in an aqueous solution containing 25 mM potassium phosphate (pH 6.2), 150 mM KCl, 3 mM MgCl2, and 10% D2O. RNA–ligand molar ratios of 1:50 and 1:100 were explored (with 6 and 3 μM RNA, respectively). […] The water signal was suppressed from one-dimensional experiments with a watergate sequence. The CPMG experiments were acquired with 100, 200, 300, and 400 ms relaxation delays before acquisition, and water suppression was achieved by presaturation. wLOGSY experiments employed a selective Gaussian 180° pulse at the water frequency and an NOE mixing time of 1.5 s and suppressed the water signal by excitation sculpting. All spectra were acquired in the absence and presence of RNA.
All ligand signals were individually analyzed. For clomiphene citrate, the signals corresponding to cis and trans forms were identified by comparing the spectrum of clomiphene citrate with those of the individual stereoisomers. In CPMG experiments, the binding of the compounds to the different RNA sequences was quantified as 100 minus the percentage of ligand signal area in the +RNA CPMG spectrum relative to the corresponding signal area in the -RNA CPMG spectrum. In wLOGSY experiments, binding was quantified with the LOGSY factor, or % of ligand signal in the difference spectrum between the +RNA and –RNA wLOGSY spectra, relative to the corresponding signal in the one-dimensional -RNA reference spectrum. In one-dimensional experiments, line broadening (LB) was quantified as explained for CPMG spectra.

PRF RNA = assay: ligand-based 1H NMR (1D, CPMG, wLOGSY); type: binding, SARS-CoV-2
5_SL2+3 RNA = assay: ligand-based 1H NMR (1D, CPMG, wLOGSY); type: binding, SARS-CoV-2
ORF7b RNA = assay: ligand-based 1H NMR (1D, CPMG, wLOGSY); type: binding, SARS-CoV-2
3_S2m RNA = assay: ligand-based 1H NMR (1D, CPMG, wLOGSY); type: binding, SARS-CoV-2
3_SL1+2 RNA = type: binding
ATTL RNA = assay: ligand-based 1H NMR (1D, CPMG, wLOGSY); type: binding, SARS-CoV-2
SARS-CoV-2 = type: cell-based; conditions: 48 h post-infection
[3] = test system: subdomain IIa of the internal ribosome entry site (IRES) RNA of HCV; set-up: method as in earlier work; conditions: ref 6 (Table S1 list: Martín-Villamil et al. 2022); cited from earlier work
SARS-CoV-2 USA-WA1/2020 [4] = assay: microbe, parasite or virus in culture; type: cell-based; conditions: Vero E6 cells, MOI 0.025, two days, read-out: SARS-CoV-2 EC50
in vitro = conditions: African green monkey, uninfected Vero E6 cells
[5] = ref 2 (Table S1 list: Prado et al. 2018)
[6] = ref 4 (Table S1 list: Medina-Trillo et al. 2020)
[7] = average of aliphatic protons, RNA:ligand 1:100 (clomiphene) or 1:50 (trim, qz2)
[8] = average of aromatic protons, RNA:ligand 1:100 (clomiphene) or 1:50 (trim, qz2)
[9] = clomiphene citrate peak A, RNA:ligand 1:100
[10] = clomiphene citrate peak B, RNA:ligand 1:100
[11] = clomiphene citrate peak C, RNA:ligand 1:100
[12] = clomiphene citrate peak D, RNA:ligand 1:100
[13] = ref 1 (Table S1 list: Prado et al. 2016)
[14] = Severe acute respiratory syndrome coronavirus 2, Vero C1008, 48 h

Which CC50 (Vero E6 cells) does the source give for `N=c1c(S(=O)(=O)c2ccc(Cl)cc2)cc2c(=O)n3ccccc3nc2n1C1CCCCC1` [2b] here?
Its CC50 is over 20 µM.

What about the “Previous target virus activity” value (HIV-1; [5]) of the same compound?
The value was “yes”.

And the “Previous target virus activity” value (HIV-1; [6])?
Its value is “no”.

What about the CC50 (293T-ACE2 cells) of the same compound?
Its CC50 is over 20 µM.

And the “Previous target RNA binding” value [1, 5]?
The value was “yes”.

What about the “Previous target RNA binding” value [1, 6] of the same compound?
The value was “yes”.

And the EC50 (SARS-CoV-2 USA-WA1/2020 [2])?
The EC50 was over 10 µM.

With `CCN(CC)CCOc1ccc(C(=C(Cl)c2ccccc2)c2ccccc2)cc1` [Clomiphene citrate, reference compound] as the compound, how does the nucleocapsid protein expression (SCoV2 USA-WA1/2020) read?
The nucleocapsid protein expression was “strongly inhibited”.

And the RNA binding preference (SCoV2 RNA elements)?
The RNA binding preference was “bound significantly to all of the RNA sequences examined”.

What about the LB (PRF RNA; [7]) of the same compound?
Its LB is 68.7%.

And the LB (PRF RNA; [8])?
Its LB is 81.7%.

And the CPMG variation (PRF RNA; [9])?
Its CPMG variation is 96.5%.

And the LB (PRF RNA; [9])?
The LB was 73.2%.

And the CPMG variation (PRF RNA; [10])?
Its CPMG variation is 93.9%.

What about the LB (PRF RNA; [10]) of the same compound?
Its LB is 82.5%.

And the CPMG variation (PRF RNA; [11])?
Its CPMG variation is 77.1%.

And the LB (PRF RNA; [11])?
The LB was 59.6%.

What about the CPMG variation (PRF RNA; [12]) of the same compound?
Its CPMG variation is 99.0%.

And the LB (PRF RNA; [12])?
Its LB is 81.7%.

And the CPMG variation (5_SL2+3 RNA; [7])?
The CPMG variation was 23.3%.

And the LB (5_SL2+3 RNA; [7])?
Its LB is 0.62%.

And the LB (5_SL2+3 RNA; [8])?
The LB was -1.34%.

What about the CPMG variation (5_SL2+3 RNA; [9]) of the same compound?
Its CPMG variation is 36.0%.

What about the LB (5_SL2+3 RNA; [9]) of the same compound?
The LB was 23.4%.

And the CPMG variation (5_SL2+3 RNA; [10])?
The CPMG variation was 26.7%.

And the LB (5_SL2+3 RNA; [10])?
Its LB is 13.7%.

And the CPMG variation (5_SL2+3 RNA; [11])?
The CPMG variation was 14.9%.

And the LB (5_SL2+3 RNA; [11])?
The LB was -17.3%.

What about the CPMG variation (5_SL2+3 RNA; [12]) of the same compound?
The CPMG variation was 29.0%.

What about the LB (5_SL2+3 RNA; [12]) of the same compound?
The LB was -1.34%.

What about the LB (ORF7b RNA; [7]) of the same compound?
The LB was 68.0%.

And the LB (ORF7b RNA; [8])?
The LB was 67.6%.

What about the CPMG variation (ORF7b RNA; [9]) of the same compound?
The CPMG variation was 96.3%.

And the LB (ORF7b RNA; [9])?
Its LB is 61.5%.

What about the CPMG variation (ORF7b RNA; [10]) of the same compound?
Its CPMG variation is 96.5%.

What about the LB (ORF7b RNA; [10]) of the same compound?
The LB was 67.2%.

And the CPMG variation (ORF7b RNA; [11])?
The CPMG variation was 92.9%.

What about the LB (ORF7b RNA; [11]) of the same compound?
The LB was 71.7%.

What about the CPMG variation (ORF7b RNA; [12]) of the same compound?
Its CPMG variation is 97.5%.

And the LB (ORF7b RNA; [12])?
The LB was 67.6%.

And the CPMG variation (3_S2m RNA; [7])?
The CPMG variation was 39.5%.

And the LB (3_S2m RNA; [7])?
Its LB is 44.9%.

What about the CPMG variation (3_S2m RNA; [8]) of the same compound?
The CPMG variation was 40.4%.

And the LB (3_S2m RNA; [8])?
Its LB is 37.4%.

What about the CPMG variation (3_S2m RNA; [9]) of the same compound?
Its CPMG variation is 37.1%.

And the LB (3_S2m RNA; [9])?
Its LB is 57.5%.

What about the CPMG variation (3_S2m RNA; [10]) of the same compound?
The CPMG variation was 38.8%.

What about the LB (3_S2m RNA; [10]) of the same compound?
The LB was 51.5%.

And the CPMG variation (3_S2m RNA; [11])?
Its CPMG variation is 40.8%.

And the LB (3_S2m RNA; [11])?
Its LB is 35.3%.

And the CPMG variation (3_S2m RNA; [12])?
The CPMG variation was 40.4%.

And the LB (3_S2m RNA; [12])?
The LB was 37.4%.

And the CPMG variation (3_SL1+2 RNA; [7])?
Its CPMG variation is 94.5%.

And the LB (3_SL1+2 RNA; [7])?
The LB was 70.7%.

And the LB (3_SL1+2 RNA; [8])?
Its LB is 61.4%.

And the CPMG variation (3_SL1+2 RNA; [9])?
The CPMG variation was 99.3%.

What about the LB (3_SL1+2 RNA; [9]) of the same compound?
The LB was 59.6%.

What about the CPMG variation (3_SL1+2 RNA; [10]) of the same compound?
Its CPMG variation is 97.0%.

What about the LB (3_SL1+2 RNA; [10]) of the same compound?
The LB was 89.5%.

And the CPMG variation (3_SL1+2 RNA; [11])?
Its CPMG variation is 91.5%.

And the LB (3_SL1+2 RNA; [11])?
Its LB is 66.9%.

And the CPMG variation (3_SL1+2 RNA; [12])?
The CPMG variation was 99.1%.

What about the LB (3_SL1+2 RNA; [12]) of the same compound?
Its LB is 61.4%.

What about the CPMG variation (ATTL RNA; [7]) of the same compound?
The CPMG variation was 38.5%.

And the LB (ATTL RNA; [7])?
The LB was 35.1%.

And the LB (ATTL RNA; [8])?
Its LB is 15.9%.

What about the CPMG variation (ATTL RNA; [9]) of the same compound?
Its CPMG variation is 34.3%.

And the LB (ATTL RNA; [9])?
Its LB is 25.5%.

What about the CPMG variation (ATTL RNA; [10]) of the same compound?
The CPMG variation was 38.3%.

And the LB (ATTL RNA; [10])?
The LB was 67.0%.

And the CPMG variation (ATTL RNA; [11])?
Its CPMG variation is 40.8%.

And the LB (ATTL RNA; [11])?
The LB was 23.9%.

What about the CPMG variation (ATTL RNA; [12]) of the same compound?
Its CPMG variation is 41.4%.

And the LB (ATTL RNA; [12])?
Its LB is 15.9%.

What about the “viral titers in supernatants (TCID50)” value (SARS-CoV-2) of the same compound?
Its value is “below the limit of detection”.

What about the “Previous target RNA binding” value [1, 13] of the same compound?
The value was “yes”.

Which results are given for `CC(CNc1nc2c(cnn2-c2ccccc2)c(=O)[nH]1)Cn1ccnc1` (stereo not shown) [gn1]?
Previous target RNA binding [3]: yes; EC50 (SARS-CoV-2 USA-WA1/2020 [4]; [14]): > 20 µM

What does the source list for `CCN(CC)CCCC(C)Nc1ccc2ccccc2n1` (stereo not shown) [qn1]?
Previous target RNA binding [3]: yes; CC50 at 2 days (in vitro): > 20 µM; EC50 (SARS-CoV-2 USA-WA1/2020 [4]; [14]): 9.4 µM; EC50 (SARS-CoV-2 USA-WA1/2020 [2]; Severe acute respiratory syndrome coronavirus 2, 48 h): 0.32 µM

Which CC50 (Vero E6 cells) does the source give for Homochlorcyclizine [reference compound] here?
Its CC50 is over 20 µM.

And the “Previous target RNA binding” value [1, 13]?
Its value is “yes”.

And the EC50 (SARS-CoV-2 USA-WA1/2020 [4])?
Its EC50 is 3.59 µM.

From publication PMC9784969, “SARS-CoV-2 Inhibitors Identified by Phenotypic Analysis of a Collection of Viral RNA-Binding Molecules” (Pharmaceuticals, 2022)
